Laboratory results taken from publication PMC13503280, “A pharmacological modality to sequester homomeric proteins” (Nature Chemical Biology, 2026).

Columns and labels:
Ramos cells = experiment: Viability measurements, Ramos cells; assay type: cell-based; conditions: Ramos, 72 h
Experimental: (§1) Cells were seeded in a transparent-bottom, black 96-well plate, at 15,000 cells per well in sixfold replications. in 90 µl of medium and left to adhere for at least 4 h. The cells were then treated with the respective compound by adding 10 µl of medium–-compound mixture for a final volume of 100 µl in each well. Cell-Titer blue reagent was used to measure viability according to the manufacturer’s instructions. Plate reader measurements were performed on a Tecan Spark Control 10 M fluorescence system.

HEK 293 cells = experiment: Viability measurements, HEK 293 cells; assay type: cell-based; conditions: HEK 293, 72 h
Experimental: as §1

Keap1 [1] = target: T1, Keap1 (Homo sapiens, UniProt Q14145); experiment: Global proteomics of soluble lysate of U2OS cells; assay type: cell-based; conditions: EL133 250 nM, 20 h, RIPA lysis, relative to control
T1 sequence (Q14145 whole entry): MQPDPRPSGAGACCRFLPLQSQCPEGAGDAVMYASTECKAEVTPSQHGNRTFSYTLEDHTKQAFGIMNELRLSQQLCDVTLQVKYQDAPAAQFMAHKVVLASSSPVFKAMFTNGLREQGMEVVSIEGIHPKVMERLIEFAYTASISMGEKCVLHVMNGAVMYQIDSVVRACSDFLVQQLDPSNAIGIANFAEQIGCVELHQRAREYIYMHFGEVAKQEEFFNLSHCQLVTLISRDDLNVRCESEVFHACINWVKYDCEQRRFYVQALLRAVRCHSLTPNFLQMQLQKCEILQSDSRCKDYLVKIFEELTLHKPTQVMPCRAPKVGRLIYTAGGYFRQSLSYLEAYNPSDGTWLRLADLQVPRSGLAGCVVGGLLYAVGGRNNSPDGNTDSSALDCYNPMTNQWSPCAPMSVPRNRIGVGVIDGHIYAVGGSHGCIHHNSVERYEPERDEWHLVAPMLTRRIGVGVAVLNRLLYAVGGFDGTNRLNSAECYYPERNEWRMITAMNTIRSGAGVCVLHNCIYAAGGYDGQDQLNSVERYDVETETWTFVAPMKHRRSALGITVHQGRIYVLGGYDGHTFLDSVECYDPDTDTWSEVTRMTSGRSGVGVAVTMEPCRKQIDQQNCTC
Experimental: Cells were incubated with DMSO at 0.1% or with compound for 20 h unless indicated differently, in quadruplicate. […] Samples were then reduced using DTT, followed by reaction with iodoacetamide. The labeled proteins were then precipitated on a dispersion of glass beads, followed by overnight trypsin digestion and purification of peptides. Samples were analyzed using an EASY-nLC 1200 nano-flow ultrahigh-performance LC system, equipped with a PepMap RSLC C18 column (particle size: 2 µm, pore size: 100 Å, diameter: 75 µm, length: 50 cm), mounted using an EASY-Spray source onto an Exploris 240 MS instrument. LC–MS-grade solvents were used for all chromatographic steps at 300 nl min^−1. The mobile phase consisted of solvent A (H2O + 0.1% formic acid) and solvent B (80% acetonitrile + 0.1% formic acid). Peptides were eluted from the column into the MS instrument using the following gradient: 1–40% B in 160 min, 40–100% B in 5 min, maintained at 100% for 20 min, 100–1% in 10 min and finally 1% for 5 min. […] Initially, data were acquired in data-independent acquisition mode. […] Four samples were analyzed per condition.
Data analysis was performed using Fragpipe[87],[88] […] Label-free quantification was performed using DIANN. After analysis, the quantified protein file was analyzed using Perseus[89]. […] Differences and P values were calculated using a double-sided Student’s t-test. […]

NQO1 expression = experiment: qPCR for NQO1 expression in OCI-AML2 cells after washout; assay type: cell-based; conditions: OCI-AML2, 250 nM 20 h, from 48 h after treatment
Experimental: Cells were treated with either DMSO or compound at 250 nM, followed by washing out the treated medium after 20 h and reseeding in fresh medium. Cells were then collected at several time points post washout. Total RNA was extracted using RNeasy mini kit (Qiagen, 74104). […] PCR amplification was carried out in Step-One Plus thermocycler (Applied Biosystems). Relative quantification was performed using standard curves. GAPDH was used for normalization.

recombinant Keap1 BTB [2] = target: T2, recombinant Keap1 BTB (Homo sapiens, UniProt Q14145, S172A); experiment: DLS of recombinant Keap1 BTB domain; assay type: biochemical; conditions: 50 μM Keap1 BTB, 50 μM compound, room temperature, over time
T2 construct: The Keap1 BTB domain (48–180) encoding the single substitution S172A was cloned into pET28-bdSumo vector; His–bdSumo (N, cleaved yes); made in house; host or cells: E. coli BL21(DE3)
T2 sequence (Q14145 48-180 S172A): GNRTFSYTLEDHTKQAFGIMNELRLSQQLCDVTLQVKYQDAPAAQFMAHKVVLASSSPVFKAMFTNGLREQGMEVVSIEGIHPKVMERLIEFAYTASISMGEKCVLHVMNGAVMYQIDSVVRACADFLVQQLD
Experimental: (§2) DLS samples were prepared in the respective protein’s elution buffer, to which 0.01% Tween was added, along with the compound from a DMSO stock to obtain a final DMSO concentration of 2%. Samples were prepared at room temperature and measured at a constant temperature of 25 °C. All samples were passed through 0.1-μm filters and then placed in a clear-bottom black 384-well plate. DLS data were recorded using a DynaproPlate Reader III (Wyatt Technology). Data were processed with the supplied DYNAMICS software.

recombinant Keap1 BTB [3] = experiment: DLS of recombinant Keap1 BTB domain; assay type: biochemical; conditions: 50 µM protein, 50 µM compound
Experimental: as §2

OCI-AML2 cells = experiment: Viability measurements, OCI-AML2 cells; assay type: cell-based
Experimental: as §1

Nrf2 = experiment: WB of Nrf2; assay type: cell-based; conditions: U2OS cells, 20 h compound treatment
Keap1 [4] = target: T1, Keap1; experiment: WB of Keap1 in OCI-AML2 cells (soluble/insoluble phase); assay type: cell-based; parameters: endogenous in cells; host or cells: OCI-AML2
Experimental: Cells were incubated with DMSO at 0.1% or with compound in concentrations ranging 10–20,000 nM for 20 h unless indicated differently. Following incubation, lysis was performed in RIPA buffer and the samples were measured for total protein quantification by BCA assay (Thermo Fisher Scientific, 23225). Then, 20–40 μg of each sample was loaded and run on an SDS–PAGE gel, before transferring onto a nitrocellulose membrane using a Trans-Blot Turbo system (Bio-Rad) and blocking using a 5% BSA in TBS-T (w/v) solution for 1 h at room temperature. Incubation with primary antibodies (mouse anti-BCL-6 (sc-7388, Santa Cruz, 1:500; overnight at 4 °C), mouse anti-Keap1 (sc-365626, Santa Cruz, 1:500; overnight at 4 °C), rabbit anti-LDHA (4H18L6, Thermo Fisher, 1:1,000; overnight at 4 °C), mouse anti-NQO2 (sc-271665, Santa Cruz, 1:500; overnight at 4 °C), rabbit anti-c-Myc (5605, Cell Signaling, 1:1,000; overnight at 4 °C) and mouse anti-β-actin (3700, Cell Signaling, 1:1,000; 1 h at room temperature) was performed and then the membranes were washed and incubated with a horseradish-peroxidase-conjugated secondary antibody (mouse 7076/rabbit 7074, Cell Signaling) at room temperature for 1 h. Imaging of the chemiluminescence signal was performed using a ChemiDoc XRS+ instrument (Bio-Rad). Primary band quantifications were normalized against β-actin bands.

Keap1 level in soluble fraction (quantitative proteomics) (Keap1 [1]): significantly downregulated
formation of large species (DLS) (recombinant Keap1 BTB [2]): large molecular species forming
IC50 (OCI-AML2 cells; Homo sapiens, OCI-AML2, 72 h): 265 nM
difference in viability IC50 over BDX (OCI-AML2 cells; OCI-AML2): fourfold
rescue of Keap1 downregulation by MLN-4924 or bortezomib pretreatment (Keap1 [4]; OCI-AML2, 1 h pretreatment, then compound 7 h): did not rescue Keap1 downregulation
concentration at which Keap1 accumulates in the insoluble phase (as low as) (Keap1 [4]; OCI-AML2 cells): 500 nM
EC50 (Keap1 [4]; OCI-AML2 cells, 20 h treatment, read-out: EC50 (Keap1 downregulation, WB)): 102 nM
Compound: CC1(C)CCC2(C(=O)NCCOCCOCCNC(=O)C34CCC(C)(C)CC3C3C(=O)C=C5C6(C)C=C(C#N)C(=O)C(C)(C)C6CCC5(C)C3(C)CC4)CCC3(C)C(C(=O)C=C4C5(C)C=C(C#N)C(=O)C(C)(C)C5CCC43C)C2C1 (stereo not shown) [EL133]
additional viability loss compared with BDX (Ramos cells): no additional viability loss
additional viability loss compared with BDX (HEK 293 cells): no additional viability loss
duration of NQO1 upregulation after washout (NQO1 expression): remained higher
formation of large species with WT versus C151S Keap1 BTB (DLS) (recombinant Keap1 BTB [3]): able to form large species in solution with the wild-type (WT) protein but not with the mutant
Nrf2 levels (WB) (Nrf2): Nrf2 upregulation
Keap1 in insoluble phase after washout (WB) (Keap1 [4]; OCI-AML2, 500 nM EL133 or 2.5 µM EL256 for 20 h, then washout): remained accumulated in the insoluble phase for up to the 96 h
